Columns and labels:
[1] = target: Tyrosine-protein kinase Fes/Fps (Homo sapiens) (UniProt P07332); assay: Inhibition of FES expressed in Escherichia coli or baculovirus-infected insect cells using ATP as substrate at 400 uM by fluorescence polarization assay
[2] = target: T1, Aurora kinase A (Homo sapiens) (UniProt O14965); assay: Inhibition of AurA expressed in Escherichia coli or baculovirus-infected insect cells at 400 uM by IMAP assay
T1 sequence (whole entry): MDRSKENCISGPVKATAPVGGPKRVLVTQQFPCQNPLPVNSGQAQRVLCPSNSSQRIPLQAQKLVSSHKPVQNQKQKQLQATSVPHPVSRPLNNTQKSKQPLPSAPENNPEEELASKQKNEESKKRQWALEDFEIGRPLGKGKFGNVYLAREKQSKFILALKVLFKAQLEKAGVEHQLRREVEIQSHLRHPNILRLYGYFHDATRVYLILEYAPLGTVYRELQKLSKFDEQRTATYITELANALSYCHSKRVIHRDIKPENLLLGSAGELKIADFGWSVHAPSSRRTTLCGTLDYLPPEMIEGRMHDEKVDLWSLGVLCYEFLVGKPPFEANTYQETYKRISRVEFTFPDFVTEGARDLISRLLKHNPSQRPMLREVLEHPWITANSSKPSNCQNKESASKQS

[3] = target: T2, Inhibitor of nuclear factor kappa-B kinase subunit beta (Homo sapiens) (UniProt O14920); assay: Inhibition of IKK-beta expressed in Escherichia coli or baculovirus-infected insect cells at 667 uM by TR-FRET assay
T2 sequence (whole entry): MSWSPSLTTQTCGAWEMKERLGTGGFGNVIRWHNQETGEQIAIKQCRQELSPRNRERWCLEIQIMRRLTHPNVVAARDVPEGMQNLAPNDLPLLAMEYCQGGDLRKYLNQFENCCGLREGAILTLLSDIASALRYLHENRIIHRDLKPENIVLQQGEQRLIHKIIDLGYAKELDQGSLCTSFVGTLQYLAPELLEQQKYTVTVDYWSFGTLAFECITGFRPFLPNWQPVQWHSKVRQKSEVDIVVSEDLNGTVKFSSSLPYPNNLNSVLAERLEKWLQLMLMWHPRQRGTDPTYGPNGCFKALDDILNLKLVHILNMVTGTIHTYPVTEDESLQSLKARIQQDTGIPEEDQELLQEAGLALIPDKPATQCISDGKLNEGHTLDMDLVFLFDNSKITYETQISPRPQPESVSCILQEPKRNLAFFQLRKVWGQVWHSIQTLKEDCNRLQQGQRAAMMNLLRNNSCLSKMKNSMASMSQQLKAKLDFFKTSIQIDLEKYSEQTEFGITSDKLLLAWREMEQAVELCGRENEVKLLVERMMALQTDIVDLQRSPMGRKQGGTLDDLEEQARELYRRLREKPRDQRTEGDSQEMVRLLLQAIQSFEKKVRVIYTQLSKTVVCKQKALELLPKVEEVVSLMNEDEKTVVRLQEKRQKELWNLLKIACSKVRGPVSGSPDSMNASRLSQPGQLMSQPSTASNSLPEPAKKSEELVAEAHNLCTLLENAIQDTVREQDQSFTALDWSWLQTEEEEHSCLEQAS

[4] = target: T3, Serine/threonine-protein kinase Sgk1 (Homo sapiens) (UniProt O00141); assay: Inhibition of SGK1 expressed in Escherichia coli or baculovirus-infected insect cells at 400 uM by IMAP assay
T3 sequence (whole entry): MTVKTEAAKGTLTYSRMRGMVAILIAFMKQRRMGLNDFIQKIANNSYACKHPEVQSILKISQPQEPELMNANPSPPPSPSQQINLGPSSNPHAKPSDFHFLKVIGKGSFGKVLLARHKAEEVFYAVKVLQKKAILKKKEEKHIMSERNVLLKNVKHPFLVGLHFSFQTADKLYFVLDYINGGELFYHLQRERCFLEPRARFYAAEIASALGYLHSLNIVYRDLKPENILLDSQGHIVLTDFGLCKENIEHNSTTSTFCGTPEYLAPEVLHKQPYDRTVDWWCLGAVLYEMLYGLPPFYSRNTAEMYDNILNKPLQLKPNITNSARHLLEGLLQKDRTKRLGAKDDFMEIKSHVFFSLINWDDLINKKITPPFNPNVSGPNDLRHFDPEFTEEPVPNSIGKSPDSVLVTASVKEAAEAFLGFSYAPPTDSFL

[5] = target: Aurora kinase B (Homo sapiens) (UniProt Q96GD4); assay: Inhibition of AurB expressed in Escherichia coli or baculovirus-infected insect cells at 400 uM by IMAP assay
Chain of Aurora kinase B (Homo sapiens) (Q96GD4 whole entry, canonical isoform): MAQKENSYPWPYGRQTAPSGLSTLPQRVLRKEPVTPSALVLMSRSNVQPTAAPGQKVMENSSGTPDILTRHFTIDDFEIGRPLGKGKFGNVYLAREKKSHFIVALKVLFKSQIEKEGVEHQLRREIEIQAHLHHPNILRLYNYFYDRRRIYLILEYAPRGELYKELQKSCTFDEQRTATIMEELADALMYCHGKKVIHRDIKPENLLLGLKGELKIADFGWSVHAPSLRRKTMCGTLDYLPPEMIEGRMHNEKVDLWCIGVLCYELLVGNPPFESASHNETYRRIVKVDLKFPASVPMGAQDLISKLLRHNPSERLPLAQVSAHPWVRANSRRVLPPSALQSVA

[6] = target: Phosphatidylinositol 4,5-bisphosphate 3-kinase catalytic subunit gamma isoform (Homo sapiens) (UniProt P48736); assay: Inhibition of PI3Kgamma expressed in Escherichia coli or baculovirus-infected insect cells at 667 uM by fluorescence polarization assay
Chain of Phosphatidylinositol 4,5-bisphosphate 3-kinase catalytic subunit gamma isoform (Homo sapiens) (P48736 whole entry, looked up, canonical isoform): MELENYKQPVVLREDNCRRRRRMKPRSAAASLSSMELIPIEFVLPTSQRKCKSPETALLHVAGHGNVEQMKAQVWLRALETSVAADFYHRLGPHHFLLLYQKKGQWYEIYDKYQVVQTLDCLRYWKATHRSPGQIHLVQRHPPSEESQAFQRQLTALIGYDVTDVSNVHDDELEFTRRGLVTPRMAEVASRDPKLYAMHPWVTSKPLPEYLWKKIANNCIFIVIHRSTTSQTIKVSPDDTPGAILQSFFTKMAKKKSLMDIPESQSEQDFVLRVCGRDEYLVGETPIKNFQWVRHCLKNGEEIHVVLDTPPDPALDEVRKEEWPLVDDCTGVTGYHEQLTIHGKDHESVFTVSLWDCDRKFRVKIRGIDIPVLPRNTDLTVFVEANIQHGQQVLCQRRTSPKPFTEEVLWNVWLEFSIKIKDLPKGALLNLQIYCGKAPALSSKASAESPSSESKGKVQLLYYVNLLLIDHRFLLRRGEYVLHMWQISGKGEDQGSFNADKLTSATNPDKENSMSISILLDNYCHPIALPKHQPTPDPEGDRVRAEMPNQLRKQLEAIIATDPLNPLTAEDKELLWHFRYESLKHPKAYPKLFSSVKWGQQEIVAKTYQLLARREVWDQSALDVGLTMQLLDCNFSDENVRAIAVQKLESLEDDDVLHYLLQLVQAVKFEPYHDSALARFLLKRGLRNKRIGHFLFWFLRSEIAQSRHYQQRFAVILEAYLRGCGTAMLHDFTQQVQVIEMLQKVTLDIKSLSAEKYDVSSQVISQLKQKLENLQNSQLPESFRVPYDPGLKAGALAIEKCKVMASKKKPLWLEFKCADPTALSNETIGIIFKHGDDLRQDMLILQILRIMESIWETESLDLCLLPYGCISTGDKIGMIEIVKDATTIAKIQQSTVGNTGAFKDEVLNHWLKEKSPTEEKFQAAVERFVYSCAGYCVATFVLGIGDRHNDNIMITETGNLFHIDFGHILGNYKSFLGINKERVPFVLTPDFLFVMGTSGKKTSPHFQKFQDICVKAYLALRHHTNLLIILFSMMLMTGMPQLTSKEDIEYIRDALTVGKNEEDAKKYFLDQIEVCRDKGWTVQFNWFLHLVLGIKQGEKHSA

Chain of Tyrosine-protein kinase Fes/Fps (Homo sapiens) (P07332 whole entry): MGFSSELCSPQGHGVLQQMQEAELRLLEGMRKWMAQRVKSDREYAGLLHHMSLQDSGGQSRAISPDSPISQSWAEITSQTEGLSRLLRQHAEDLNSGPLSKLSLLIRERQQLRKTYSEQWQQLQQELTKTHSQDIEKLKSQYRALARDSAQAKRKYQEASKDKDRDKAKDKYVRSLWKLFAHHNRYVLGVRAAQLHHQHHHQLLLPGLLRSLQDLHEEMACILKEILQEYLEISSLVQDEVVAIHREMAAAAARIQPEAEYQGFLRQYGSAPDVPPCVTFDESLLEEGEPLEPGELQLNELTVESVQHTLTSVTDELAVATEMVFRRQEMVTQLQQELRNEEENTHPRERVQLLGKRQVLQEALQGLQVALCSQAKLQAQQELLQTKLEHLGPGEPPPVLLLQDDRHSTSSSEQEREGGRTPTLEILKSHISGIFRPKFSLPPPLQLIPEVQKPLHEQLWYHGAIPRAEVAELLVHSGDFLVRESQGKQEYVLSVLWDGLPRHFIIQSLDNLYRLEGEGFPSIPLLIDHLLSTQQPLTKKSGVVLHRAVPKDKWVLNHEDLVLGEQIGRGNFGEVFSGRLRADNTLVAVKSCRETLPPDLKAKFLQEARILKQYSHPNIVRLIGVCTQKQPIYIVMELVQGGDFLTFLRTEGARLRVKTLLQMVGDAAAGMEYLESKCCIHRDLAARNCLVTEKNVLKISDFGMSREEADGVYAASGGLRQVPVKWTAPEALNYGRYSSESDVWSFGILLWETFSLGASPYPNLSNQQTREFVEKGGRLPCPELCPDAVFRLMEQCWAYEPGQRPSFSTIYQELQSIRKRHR

inhibition [1] [%]	inhibition [2] [%]	inhibition [3] [%]	inhibition [4] [%]	inhibition [5] [%]	inhibition [6] [%]	SMILES
12	92	65	63	100	20	Nc1n[nH]c2ncccc12
35	89	8	21	97	16	c1ccc(Nc2ncccn2)cc1
9	0	0	3		2	c1ccc(Nc2ccccc2)cc1
6		0	8	12	7	O=C(Nc1ccccc1)Nc1cccc(C(F)(F)F)c1
13	0	0	15	30	9	O=C(Nc1ccccc1)Nc1ccccc1
11	84	47	97	98	10	Nc1[nH]nc2ccccc12
100	40	0	52	77	100	Nc1ncccc1OCc1ccccc1
70	0	0	0	0	92	c1ccc(-c2cnc3nccnn23)cc1
9	36	29	62	94	20	c1cnc2[nH]ccc2c1
68	96	57	90	97	70	Nc1ccc2ncc(-c3ccccc3)n2n1

The remaining lines, values behind:

SMILES	inhibition [1] [%]	inhibition [2] [%]	inhibition [3] [%]	inhibition [4] [%]	inhibition [5] [%]	inhibition [6] [%]
Nc1[nH]cnc2ncnc1-2	20	90	22	76	99	66
c1ccc2[nH]ncc2c1 [INDAZOLE]	1	37	15	75	81	0
CC(C)(C)c1cc(NC(=O)Nc2ccccc2)no1	3	27	2	10	31	9
Cc1ccc(NC(=O)Nc2cccc(C(F)(F)F)c2)cc1	0	7	0	8	12	0
Cc1ccc(NC(=O)Nc2cc(C(C)(C)C)nn2-c2ccccc2)cc1	3	7	3	7	0	2
Cc1ccc(C(=O)NC2CC2)cc1F	1	5	0	17	15	13
c1n[nH]c2c1CCCC2	14	27	0	27	22	13

From ChEMBL document CHEMBL1817560, “Selectivity of kinase inhibitor fragments” (J Med Chem, 2011)
